In PubChem BioAssay AID220 (DTP/NCI, 2004):
Several values for one entry are separate records, joined by “and”; a condition that tells them apart may be missing. Equal entries are not always repeated. Records with an inconclusive call do not appear.

Test system: CD8F1 mice, subcutaneous mammary adenocarcinoma, T/C%
Assay: NCI In Vivo Anticancer Drug Screen. Data for tumor model Mammary Adenocarcinoma CD8F1 (subcutaneous) in CD8F1
Details: higher = larger tumour
Procedure, shortened: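 Compound-treated versus vehicle-treated mice with transplantable tumors; survival or tumor size compared as T/C.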

[1] = endpoint: median tumor weight (est.), dose: 12.5 mg/kg/injection, schedule: Q07DX005 (ip), vehicle: suspension in saline
[2] = endpoint: median tumor weight (est.), dose: 25.0 mg/kg/injection, schedule: Q07DX005 (ip), vehicle: suspension in saline
[3] = endpoint: median tumor weight (est.), dose: 50.0 mg/kg/injection, schedule: Q07DX005 (ip), vehicle: suspension in saline
[4] = endpoint: median tumor weight change, dose: 125.0 mg/kg/injection, schedule: Q01DX001 (ip), vehicle: saline with Tween-80
[5] = endpoint: median tumor weight change, dose: 250.0 mg/kg/injection, schedule: Q01DX001 (ip), vehicle: saline with Tween-80
[6] = endpoint: median tumor weight change, dose: 500.0 mg/kg/injection, schedule: Q01DX001 (ip), vehicle: saline with Tween-80
[7] = endpoint: median tumor weight change, dose: 31.25 mg/kg/injection, schedule: Q01DX001 (ip), vehicle: saline with Tween-80
[8] = endpoint: median tumor weight change, dose: 62.5 mg/kg/injection, schedule: Q01DX001 (ip), vehicle: saline with Tween-80

C=C(OP(=O)(OC)OC)Sc1ccccc1C
T/C (endpoint: median tumor weight change, dose: 0.38 mg/kg/injection, schedule: Q01DX001 (ip), vehicle: Klucel (hydroxypropylcellulose) (HPC)): 80 % of control
T/C (endpoint: median tumor weight change, dose: 0.75 mg/kg/injection, schedule: Q01DX001 (ip), vehicle: Klucel (hydroxypropylcellulose) (HPC)): 96 % of control
T/C (endpoint: median tumor weight change, dose: 1.5 mg/kg/injection, schedule: Q01DX001 (ip), vehicle: Klucel (hydroxypropylcellulose) (HPC)): 88 % of control

COC1=CC(=O)N(C(=O)C2CSC(C(CO)NC(=O)c3csc(/C=N/O)n3)=N2)C1 (centres undefined)
T/C (endpoint: median tumor weight (est.), dose: 100.0 mg/kg/injection, schedule: Q07DX005 (ip), vehicle: Klucel (hydroxypropylcellulose) (HPC)): 83 % of control
T/C (endpoint: median tumor weight (est.), dose: 200.0 mg/kg/injection, schedule: Q07DX005 (ip), vehicle: Klucel (hydroxypropylcellulose) (HPC)): 102 % of control
T/C (endpoint: median tumor weight (est.), dose: 400.0 mg/kg/injection, schedule: Q07DX005 (ip), vehicle: Klucel (hydroxypropylcellulose) (HPC)): 100 % of control

CCC1CN2C(=N1)c1ccccc1-c1cc(Cl)ccc12 (centres undefined)
T/C (endpoint: median tumor weight (est.), dose: 3.12 mg/kg/injection, schedule: Q07DX005 (ip), vehicle: saline): 82 % of control
T/C (endpoint: median tumor weight (est.), dose: 3.12 mg/kg/injection, schedule: Q07DX005 (ip), vehicle: suspension in saline): 111 % of control
T/C (endpoint: median tumor weight (est.), dose: 6.25 mg/kg/injection, schedule: Q07DX005 (ip), vehicle: saline): 42 % of control
T/C (endpoint: median tumor weight (est.), dose: 12.5 mg/kg/injection, schedule: Q07DX005 (ip), vehicle: saline): 43 % of control
T/C [1]: 98 % of control
T/C (endpoint: median tumor weight (est.), dose: 25.0 mg/kg/injection, schedule: Q07DX005 (ip), vehicle: saline): 30 % of control
T/C [2]: 64 % of control
T/C [3]: 97 % of control

CC(/C=C/c1ccccc1)=Nc1ccccc1
T/C [4]: 107 % of control
T/C [5]: 97 % of control
T/C [6]: 99 % of control

CCOC(=O)c1c[nH]c2oc(/C=N/N3CC(CN4CCOCC4)OC3=O)cc2c1=O (centres undefined)
T/C [1]: 107 % of control
T/C [2]: 87 % of control
T/C [3]: 97 % of control
T/C (endpoint: median tumor weight (est.), dose: 100.0 mg/kg/injection, schedule: Q07DX005 (ip), vehicle: suspension in saline): 155 % of control
T/C (endpoint: median tumor weight (est.), dose: 400.0 mg/kg/injection, schedule: Q07DX005 (ip), vehicle: suspension in saline): 94 % of control

C=C1C(=O)C23[C@H](O)C1CC[C@H]2[C@]12COC3(O)[C@@H](O)[C@@H]1C(C)(C)CC[C@@H]2O
T/C (endpoint: median tumor weight (est.), dose: 8.75 mg/kg/injection, schedule: Q07DX005 (ip), vehicle: Klucel (hydroxypropylcellulose) (HPC)): 104 % of control
T/C (endpoint: median tumor weight (est.), dose: 17.5 mg/kg/injection, schedule: Q07DX005 (ip), vehicle: Klucel (hydroxypropylcellulose) (HPC)): 65 % of control
T/C (endpoint: median tumor weight change, dose: 15.62 mg/kg/injection, schedule: Q01DX001 (ip), vehicle: saline with Tween-80): 54 % of control
T/C [7]: 61 % of control

CNC(=O)n1c(N)nc(-c2ccccc2)c1-c1ccccc1
T/C [7]: 93 % of control
T/C [8]: 92 % of control
T/C [4]: 79 % of control

O=C1C2(Cl)C3(Cl)C4(Cl)C(Cl)(Cl)C5(Cl)[C@]3(Cl)C1(Cl)[C@]5(Cl)C24Cl (some centres undefined)
T/C (endpoint: median tumor weight (est.), dose: 12.5 mg/kg/injection, schedule: Q07DX005 (ip), vehicle: Klucel (hydroxypropylcellulose) (HPC)): 71 % of control
T/C (endpoint: median tumor weight (est.), dose: 25.0 mg/kg/injection, schedule: Q07DX005 (ip), vehicle: Klucel (hydroxypropylcellulose) (HPC)): 91 % of control
T/C (endpoint: median tumor weight (est.), dose: 50.0 mg/kg/injection, schedule: Q07DX005 (ip), vehicle: Klucel (hydroxypropylcellulose) (HPC)): 67 % of control

C(=N/NC1=NCCN1)/c1c2ccccc2c(/C=N\NC2=NCCN2)c2ccccc12
T/C (endpoint: median tumor weight change, dose: 25.0 mg/kg/injection, schedule: Q01DX001 (ip), vehicle: saline): 78 % of control
T/C (endpoint: median tumor weight change, dose: 50.0 mg/kg/injection, schedule: Q01DX001 (ip), vehicle: saline): 101 % of control
T/C (endpoint: median tumor weight change, dose: 100.0 mg/kg/injection, schedule: Q01DX001 (ip), vehicle: saline): 37 % of control

COC1CC(CC2CCC(C)C(C(C)C(=O)O)O2)OC2(OC(C)(C3CCC(C)(C4OC(C5OC(O)(CO)C(C)CC5C)CC4C)O3)CC2C)C1C (centres undefined)
T/C (endpoint: median tumor weight (est.), dose: 0.31 mg/kg/injection, schedule: Q07DX005 (ip), vehicle: Klucel (hydroxypropylcellulose) (HPC)): 112 % of control
T/C (endpoint: median tumor weight (est.), dose: 0.63 mg/kg/injection, schedule: Q07DX005 (ip), vehicle: Klucel (hydroxypropylcellulose) (HPC)): 398 % of control
T/C (endpoint: median tumor weight (est.), dose: 1.25 mg/kg/injection, schedule: Q07DX005 (ip), vehicle: Klucel (hydroxypropylcellulose) (HPC)): 390 % of control
T/C (endpoint: median tumor weight (est.), dose: 2.5 mg/kg/injection, schedule: Q07DX005 (ip), vehicle: Klucel (hydroxypropylcellulose) (HPC)): 47 % of control
T/C (endpoint: median tumor weight (est.), dose: 5.0 mg/kg/injection, schedule: Q07DX005 (ip), vehicle: Klucel (hydroxypropylcellulose) (HPC)): 380 % of control
T/C (endpoint: median tumor weight (est.), dose: 10.0 mg/kg/injection, schedule: Q07DX005 (ip), vehicle: Klucel (hydroxypropylcellulose) (HPC)): 323 % of control

[Na+]
T/C (endpoint: median tumor weight change, dose: 75.0 mg/kg/injection, schedule: Q01DX001 (ip), vehicle: water): 68 % of control
T/C (endpoint: median tumor weight change, dose: 150.0 mg/kg/injection, schedule: Q01DX001 (ip), vehicle: water): 93 % of control
T/C (endpoint: median tumor weight change, dose: 300.0 mg/kg/injection, schedule: Q01DX001 (ip), vehicle: water): 66 % of control
T/C (endpoint: median tumor weight change, dose: 600.0 mg/kg/injection, schedule: Q01DX001 (ip), vehicle: water): 85 % of control
T/C (endpoint: median tumor weight change, dose: 1200.0 mg/kg/injection, schedule: Q01DX001 (ip), vehicle: water): 67 % of control

COc1ccc2[nH]c3ccc4cc[n+](CCN5CCC(C6CCN(CC[n+]7ccc8ccc9[nH]c%10ccc(OC)cc%10c9c8c7)CC6)CC5)cc4c3c2c1
T/C (endpoint: median tumor weight change, dose: 62.5 mg/kg/injection, schedule: Q01DX001 (ip), vehicle: Klucel (hydroxypropylcellulose) (HPC)): 58 % of control
T/C (endpoint: median tumor weight change, dose: 125.0 mg/kg/injection, schedule: Q01DX001 (ip), vehicle: Klucel (hydroxypropylcellulose) (HPC)): 68 % of control

N#CC(=C1SCS1)[N+](=O)[O-]
T/C (endpoint: median tumor weight change, dose: 7.5 mg/kg/injection, schedule: Q01DX001 (ip), vehicle: saline with Tween-80): 83 % of control
T/C (endpoint: median tumor weight change, dose: 15.0 mg/kg/injection, schedule: Q01DX001 (ip), vehicle: saline with Tween-80): 90 % of control
T/C (endpoint: median tumor weight change, dose: 30.0 mg/kg/injection, schedule: Q01DX001 (ip), vehicle: saline with Tween-80): 152 % of control
T/C (endpoint: median tumor weight change, dose: 60.0 mg/kg/injection, schedule: Q01DX001 (ip), vehicle: saline with Tween-80): 48 % of control

Cc1c2c(c(O)c3c(O)cccc13)C(=O)C1(O)C(O)=C(C(=O)NCNc3ccc(C(N)=O)cn3)C(=O)C(N(C)C)C1C2 (centres undefined)
T/C (endpoint: median tumor weight change, dose: 15.62 mg/kg/injection, schedule: Q01DX001 (ip), vehicle: saline): 82 % of control
T/C (endpoint: median tumor weight change, dose: 31.25 mg/kg/injection, schedule: Q01DX001 (ip), vehicle: saline): 70 % of control
T/C (endpoint: median tumor weight change, dose: 62.5 mg/kg/injection, schedule: Q01DX001 (ip), vehicle: saline): 43 % of control
T/C (endpoint: median tumor weight change, dose: 125.0 mg/kg/injection, schedule: Q01DX001 (ip), vehicle: saline): 34 % of control

COc1cc2c(c(OC)c1OC)-c1ccc(OC)c(=O)cc1[C@@H](NC(C)=O)CC2
T/C (endpoint: median tumor weight (est.), dose: 0.75 mg/kg/injection, schedule: Q07DX005 (ip), vehicle: saline): 82 % of control and 97 % of control
T/C (endpoint: median tumor weight (est.), dose: 1.5 mg/kg/injection, schedule: Q07DX005 (ip), vehicle: saline): 49 % of control
T/C (endpoint: median tumor weight change, dose: 3.0 mg/kg/injection, schedule: Q01DX001 (ip), vehicle: suspension in saline): 21 % of control
T/C (endpoint: median tumor weight change, dose: 6.25 mg/kg/injection, schedule: Q01DX001 (ip), vehicle: saline): -47 % of control

O.O.[NH-]C1CCCCC1[NH-].[Pt+2] (centres undefined)
T/C (endpoint: median tumor weight (est.), dose: 0.62 mg/kg/injection, schedule: Q07DX005 (ip), vehicle: dextrose): 50 % of control
T/C (endpoint: median tumor weight (est.), dose: 20.0 mg/kg/injection, schedule: Q07DX005 (ip), vehicle: dextrose): 69 % of control
T/C (endpoint: median tumor weight (est.), dose: 40.0 mg/kg/injection, schedule: Q07DX005 (ip), vehicle: dextrose): 39 % of control

CCCCCCCCCCCCCC#CC(=O)O
T/C [8]: 75 % of control and 95 % of control
T/C [4]: 68 % of control and 81 % of control
T/C [5]: 72 % of control
T/C [6]: 78 % of control

[Cl][Mn][Cl]
T/C (endpoint: median tumor weight (est.), dose: 64.0 mg/kg/injection, schedule: Q07DX005 (ip), vehicle: saline): 111 % of control
T/C (endpoint: median tumor weight (est.), dose: 128.0 mg/kg/injection, schedule: Q07DX005 (ip), vehicle: saline): 66 % of control

COc1cccc2c1C(=O)c1c(O)c3c(c(O)c1C2=O)C[C@@](O)(C(=O)CO)C[C@@H]3OC1CC(N(C)C)C(O)C(C)O1 (some centres undefined)
T/C (endpoint: median tumor weight (est.), dose: 2.67 mg/kg/injection, schedule: Q07DX005 (ip), vehicle: water): 88 % of control

c1cc[c]([Sn]([NH]c2ncnc3[nH]cnc23)([NH]c2ncnc3[nH]cnc23)[c]2ccccc2)cc1
T/C (endpoint: median tumor weight change, dose: 125.0 mg/kg/injection, schedule: Q01DX001 (ip), vehicle: suspension in saline): 101 % of control
T/C (endpoint: median tumor weight change, dose: 250.0 mg/kg/injection, schedule: Q01DX001 (ip), vehicle: suspension in saline): 61 % of control
T/C (endpoint: median tumor weight change, dose: 500.0 mg/kg/injection, schedule: Q01DX001 (ip), vehicle: suspension in saline): 41 % of control
T/C (endpoint: median tumor weight change, dose: 1000.0 mg/kg/injection, schedule: Q01DX001 (ip), vehicle: suspension in saline): 42 % of control
